Data published in US4351954A (priority 1979, dated 1982).

What was measured:
[1] = test system: melanose (Diaporthe citri Wolf); type: cell-based
[2] = test system: black spot (Alternaria kikuchiana Tanka); type: cell-based
[3] = test system: pickerelweed (Monochloria vaginalis var. plantaginea); assay: Herbicidal activity, miniature paddy field; type: in vivo; details: 1% aqueous solution, after 15 days
Text: (§1) Paddy-field soil kneaded in a concrete mixer was placed in 500-ml plastic beakers. Seeds of barnyardgrass (Echinochloa crusgalli Beauv.) were scattered on the soil and incorporated in the soil to a depth of about 2 cm from the surface. Afterward, the seeds of pickerelweed (Monochloria vaginalis var. plantaginea) and purple loosestrife (Lythrum anceps) were scattered on the surface of soil. Then, slender spikerush (Eleocharis acicularis) and rice were transplanted to the soil. The soil in the beakers was inundated to a depth of about 3 cm. After two days, 1% aqueous solution of CF2 ClCFClCH2 CH(NH2)CO2 H and CF2 BrCF2 CH2 CH(NH2)CO2 H were applied to the soil in the beakers at dosage rates of 1000 g, 500 g, and 250 g per 10 acres with the aid of a pipet. After 15 days, the miniature paddy fields were examined.

[4] = test system: purple loosestrife (Lythrum anceps); assay: Herbicidal activity, miniature paddy field; type: in vivo; details: 1% aqueous solution, after 15 days
Text: as §1

[5] = test system: bacterial leaf blight (Xanthomonas oryzae Dowson); type: cell-based; details: paper discs immersed in 500-ppm aqueous solution; after two days; qualitative
[6] = test system: blast (Pyricularia oryzae Cavara); type: cell-based; details: paper discs immersed in 500-ppm aqueous solution; after two days; qualitative
[7] = test system: diamondback moths (Plutella maculipennis Curtis); assay: Insecticidal activity, treated cabbage leaves fed to moths; type: in vivo; details: 240 h, cabbage leaves immersed in 500-ppm aqueous solution, after 10 days, read-out: insects dead
Text: Cabbage leaves were immersed in a 500-ppm aqueous CF2 BrCF2 CH2 CH(NH2)CO2 H solution, removed from the solution and dried. They were placed in a Petri dish, in which a group of diamondback moths (Plutella maculipennis Curtis) were fed on the cabbage leaves. After 10 days, 70% of the insects were dead. When the same number of diamondback moths were fed on cabbage leaves which had not been given the treatment, only 10% of the insects were dead after 10 days.

acid phosphatase = assay: Enzyme inhibiting activity; type: biochemical; details: pH 5, 37° C. for 20 minutes
Experimental: A 2×10^-4 M aqueous solution of fluorine-containing amino acid was prepared by adding a fluorine-containing amino acid, viz. CF2 ClCHFCH2 CH(NH2)CO2 H, dissolved in a small amount of methanol to a mixture consisting of 0.1 cc of a 0.025% aqueous solution of acid phosphatase, 0.1 mol of a substrate, 0.05 cc of DPNP, 0.25 cc of water and a 0.1 N sodium acetate (pH 5) as a buffer. The resultant mixture was incubated at 37° C. for 20 minutes. At the end of the 20 minutes, the reaction proceeding in the mixture was stopped by adding 3 cc of an aqueous NaOH solution to the mixture. The mixture was assayed for absorption at a wavelength of 422 mμ.
When the procedure was repeated by using a 1×10^-3 M aqueous solution of CF2 ClCFClCH(CH3)CH(NH2)CO2 H, the enzyme inhibition ratio was 37%.

SMILES | growth of the germs of melanose [1] | growth of the germs of black spot [2] | destruction of pickerelweed ([3]; 250 g per 10 acres) | destruction of pickerelweed ([3]; 500 g per 10 acres) | destruction of pickerelweed ([3]; 1000 g per 10 acres) | destruction of purple loosestrife ([4]; 250 g per 10 acres) | destruction of purple loosestrife ([4]; 500 g per 10 acres) | destruction of purple loosestrife ([4]; 1000 g per 10 acres) | growth of the germs of bacterial leaf blight [5] | growth of the germs of blast [6] | mortality at 500 µg/mL [7] [%] | enzyme inhibition (acid phosphatase; 2×10^-4 M) [%] | enzyme inhibition ratio (acid phosphatase; 1×10^-3 M, 1000 µM) [%]
NC(CC(F)(Cl)C(F)(F)Cl)C(=O)O (stereo not shown) [CF2 ClCFClCH2 CH(NH2)CO2 H] | impeded the growth | impeded the growth | completely destroyed | completely destroyed | completely destroyed | completely destroyed | completely destroyed | completely destroyed | – | – | – | – | –
NC(CC(F)(F)C(F)(F)Br)C(=O)O (stereo not shown) [CF2 BrCF2 CH2 CH(NH2)CO2 H, 2-amino-4,4,5,5-tetrafluoro-5-bromopentanoic acid] | – | – | half destroyed | half destroyed | completely destroyed | half destroyed | half destroyed | completely destroyed | impeded the growth | impeded the growth | 70 | – | –
NC(CC(F)C(F)(F)Cl)C(=O)O (stereo not shown) [CF2 ClCHFCH2 CH(NH2)CO2 H, 2-amino-4,5,5-trifluoro-5-chloropentanoic acid] | – | – | – | – | – | – | – | – | – | – | – | 58 | –
CC(C(N)C(=O)O)C(F)(Cl)C(F)(F)Cl (stereo not shown) [CF2 ClCFClCH(CH3)CH(NH2)CO2 H, 2-amino-3-methyl-4,5-dichloro-4,5,5-trifluoropentanoic acid] | – | – | – | – | – | – | – | – | – | – | – | – | 37
